From patent publication US20040242542A1, “Compositions and methods for inducing CD81 dependent antiproliferation and for treating hepatitis C and other disorders” (The Regents of the University of California, priority 2003, published 2004)

How the values were obtained:
[1] = tested on: CD81-enriched cell lines (astrocyte) vs. CD81-deficient cell lines (C6 glioma); test: Antiproliferation of CD81-enriched astrocytes vs. CD81-deficient C6 glioma cells; assay type: cell-based; settings: for astrocyte-selective antiproliferation: concentration range of 0.1 to 10 μM, astrocytes relative to CD81-deficient cell lines
From the text: Further in accordance with the present invention, there are provided methods for synthesis of amantadine analogues by appending primary amines to 1-boraadamantane to evaluate such compounds for CD81 dependent antiproliferation of CD81-enriched cell lines (astrocyte) vs. CD81-deficient cell lines (C6 glioma). Specific details of the synthetic methods of the present invention as well as related data is now published in Wagner, Carl E. et al., Synthesis of-1-Boraadamantaneamine Derivatives with Selective Astrocyte vs C6 Glioma Antiproliferative Activity. A Novel Class of Anti-Hepatitis C Agents with Potential to Bind CD81, J.Med.Chem., Vol.46,2823-2833 (2003) and Wagner, Carl E., Syntheis and First Molecular Structure of a Bis-2-spiro-1boraadamantane Dirivative, Organic Letters, Vol. 6, No. 3, 313-316 (2004), copies of which are filed herewith and the entireties of which are expressly incorporated herein by reference.
The amantadine analogues of the present invention that bind to and activate CD81 may have the potential to prevent or treat HCV infections. Each compound's potential for preventive and therapeutic activity stems from the compound's potential to block viral attachment, virus-cell fusion or virus entry into host cells, or similarly counter potential mechanisms of HCV immune evasion. Out of a library of over 500 compounds including randomly selected small molecules and rationally designed small molecules, only the 1-boraadamantane amine compounds display a significant antiproliferative effect on the CD81-enriched astrocytes relative to the CD81-deficient cell lines. […] Additionally, structurally similar adamantane analogues to the active primary amine 1-boraadamantane complexes identified in this assay were synthesized for testing.
A variety of 1-boraadamatane amine complexes were synthesized by stoichiometric addition of a primary amine to 1-boraadamantane·THF. These complexes were subsequently evaluated for an antiproliferative effect on CD81-enriched cell lines to provide evidence for binding and activation of the CD81 receptor. Additional amantidine analogues structurally similar to the 1-boraadamantane amine complexes were also synthesized.

α4 β1/VCAM cell line = α4 β1/VCAM cell line (Homo sapiens, UniProt P05556+P13612); settings: reported in the literature; read-out: IC50 as antagonist for α4 β1/VCAM; cited from earlier work
Chain of α4 β1/VCAM cell line (P13612 34-1032): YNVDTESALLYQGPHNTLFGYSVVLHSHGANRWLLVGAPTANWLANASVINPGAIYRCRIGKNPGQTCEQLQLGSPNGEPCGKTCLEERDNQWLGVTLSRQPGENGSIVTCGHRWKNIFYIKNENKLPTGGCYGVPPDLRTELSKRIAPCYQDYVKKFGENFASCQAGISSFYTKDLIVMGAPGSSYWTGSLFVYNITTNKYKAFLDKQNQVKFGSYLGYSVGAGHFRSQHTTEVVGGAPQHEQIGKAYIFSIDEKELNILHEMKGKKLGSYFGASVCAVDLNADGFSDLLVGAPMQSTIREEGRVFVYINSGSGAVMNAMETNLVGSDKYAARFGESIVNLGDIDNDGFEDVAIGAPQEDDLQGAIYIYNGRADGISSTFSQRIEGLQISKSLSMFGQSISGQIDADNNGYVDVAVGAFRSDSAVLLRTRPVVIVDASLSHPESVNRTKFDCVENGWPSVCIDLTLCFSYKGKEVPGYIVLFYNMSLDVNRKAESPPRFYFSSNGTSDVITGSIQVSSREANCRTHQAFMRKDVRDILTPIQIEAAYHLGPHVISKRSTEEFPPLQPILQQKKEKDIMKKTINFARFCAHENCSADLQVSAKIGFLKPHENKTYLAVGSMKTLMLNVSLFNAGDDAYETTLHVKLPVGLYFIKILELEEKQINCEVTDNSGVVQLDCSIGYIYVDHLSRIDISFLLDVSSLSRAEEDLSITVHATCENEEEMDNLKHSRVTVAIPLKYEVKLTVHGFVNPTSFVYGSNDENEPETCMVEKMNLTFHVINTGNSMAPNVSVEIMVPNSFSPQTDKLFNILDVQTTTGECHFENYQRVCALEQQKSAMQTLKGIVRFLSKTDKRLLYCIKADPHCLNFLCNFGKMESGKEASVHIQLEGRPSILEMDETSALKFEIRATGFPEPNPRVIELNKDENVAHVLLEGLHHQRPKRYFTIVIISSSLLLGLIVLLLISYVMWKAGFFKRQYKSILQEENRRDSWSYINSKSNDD
Chain of α4 β1/VCAM cell line (P05556 21-798): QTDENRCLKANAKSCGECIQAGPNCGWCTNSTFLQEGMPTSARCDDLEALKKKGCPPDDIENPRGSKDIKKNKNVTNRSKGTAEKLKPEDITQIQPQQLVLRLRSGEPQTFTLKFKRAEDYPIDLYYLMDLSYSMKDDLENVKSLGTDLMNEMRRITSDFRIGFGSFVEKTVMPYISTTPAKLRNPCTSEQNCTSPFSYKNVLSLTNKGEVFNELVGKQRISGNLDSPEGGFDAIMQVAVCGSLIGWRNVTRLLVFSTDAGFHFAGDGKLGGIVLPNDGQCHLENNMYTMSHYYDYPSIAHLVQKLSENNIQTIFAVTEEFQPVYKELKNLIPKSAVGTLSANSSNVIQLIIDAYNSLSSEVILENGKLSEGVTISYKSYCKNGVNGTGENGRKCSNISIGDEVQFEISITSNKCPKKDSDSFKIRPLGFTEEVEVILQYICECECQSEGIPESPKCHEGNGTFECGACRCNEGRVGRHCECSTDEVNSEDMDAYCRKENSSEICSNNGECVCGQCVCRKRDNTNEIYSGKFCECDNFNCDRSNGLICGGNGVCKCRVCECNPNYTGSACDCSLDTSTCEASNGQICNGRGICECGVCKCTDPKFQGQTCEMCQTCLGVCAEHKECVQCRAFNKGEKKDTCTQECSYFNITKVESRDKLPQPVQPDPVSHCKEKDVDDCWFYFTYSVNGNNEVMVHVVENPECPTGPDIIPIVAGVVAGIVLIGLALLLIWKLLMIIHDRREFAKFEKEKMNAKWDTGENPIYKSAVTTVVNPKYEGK

Compound | astrocyte-selective antiproliferation [1] | IC50 (α4 β1/VCAM cell line) | other results
1-boraadamantane 1-aminoadamantane complex [Complex 1] |  |  | inhibiting the proliferation of the astrocyte cell line (ranking) ([1]; cell based assay, astrocyte cell line): most active compounds
O=C(O)[C@H](Cc1ccccc1)NC(=O)C12CC3CC(CC(C3)C1)C2 [Complex 15] | astrocyte-selective antiproliferation |  | antiproliferative character (ranking) ([1]; 0.1 to 10 μM range of concentration): greatest antiproliferative character
CC(C)C[C@H](NC(=O)C12CC3CC(CC(C3)C1)C2)C(=O)O [Complex 16] | astrocyte-selective antiproliferation |  | 
COC(=O)C(CSSCC(NC(=O)C12CC3CC(CC(C3)C1)C2)C(=O)OC)NC(=O)C12CC3CC(CC(C3)C1)C2 [Compound 25, N,N-diadamantylcarbonyl-L-cystine methyl ester] |  | > 800 µM | 
O=C(O)C(CSSCC(NC(=O)C12CC3CC(CC(C3)C1)C2)C(=O)O)NC(=O)C12CC3CC(CC(C3)C1)C2 (stereo not shown) [Compound 26] |  | 7.3 µM | 
Cl.NC12CC3CC(CC(C3)C1)C2 [amantadine, 1-aminoadamantane hydrochloride, reference compound] |  |  | reduction of astrocyte proliferation ([1]; at high concentrations (>100 _M)): only slightly reduces astrocyte proliferation
